In PMC9658316, “Discovery of Mitochondrial Complex I Inhibitors as Anticancer and Radiosensitizer Drugs Based on Compensatory Stimulation of Lactate Release” (Cancers, 2022):

Assays:
[1] = system: colorectal CT26 cancer cells; assay: Compound-induced L-lactate release (Assay #1), CT26; assay type: cell-based, mouse; settings: 10 µM; for [LAC] increase: 24 h exposure, L-lactate secretion above basal release; for L-lactate release compared with reference compound aa: 24 h
Description: (§1) L-lactate concentration was measured in a semi-automated manner using CMA Microdialysis AB enzymatic assay and a CMA 600 analyzer (Aurora Borealis, Schoonebeek, The Netherlands) as previously described. Briefly, cells (2 × 10^5 cells per well; 3 wells/condition) were seeded in 12-well plates with 2 mL of their routine culture medium. After 24 h, medium was replaced by 500 µL of DMEM containing 10 mmol/L D-glucose and supplemented with 2 mmol/L L-glutamine and 10% dialyzed FBS (Sigma-Aldrich), in the presence of the compounds or vehicle (DMSO). The initial concentration of L-lactate in the experimental medium was also assessed by including control wells containing only cell culture medium (no cells) on each plate. After incubation for 24 h, extracellular media were collected and deproteinized by centrifugation (15 min, 10,000 rpm, 4 °C) in 10 kDa cut-off filter tubes (VWR, Avantor, Leuven, Belgium). Differences in L-lactate concentrations between control and treated cells were calculated and normalized by the protein content in each well and expressed in µmol/h/mg protein. Oxygen-consumption rate (OCR) was measured using the Seahorse XF96 plate reader as previously reported. Briefly, cells (2 × 10^4 cells per well) were first permeabilized with 1 nM Seahorse XF Plasma Membrane Permeabilizer (#102504-100; Agilent, Machelen, Belgium) and respiration was stimulated by adding 10 mM pyruvate, 5 mM malate, and 2 mM ADP. After baseline OCR determination, compounds were added (to inhibit complex I) followed by 10 mM succinate to fuel complex II and rescue the electron transport chain. In some experiments, the effects of selected hits on basal OCR were evaluated in intact cells (including in the presence of MCT1/2 inhibitor AR-C155858 [29] or methylpyruvate). OCR data were normalized according to protein content in each well.
Figure 3 Compound-induced L-lactate release (Assay #1). Culture medium was collected after 24 h exposure to the indicated compounds (10 µM) and the amount of extracellular L-lactate release was determined in a semi-automated manner; dose-dependent effects of complex I inhibitor IACS are shown on the right (shaded bars). Bar graph depicts the extent of L-lactate secretion above the basal release as determined in the absence of any compound (n = 3, ** p < 0.01 for increased L-lactate release vs. reference compound aa).

[2] = system: breast cancer 4T1 cancer cells; assay: Compound-induced L-lactate release (Assay #1), 4T1; assay type: cell-based, mouse; settings: 4T1 cells, 24 h
Description: L-lactate concentration was measured in a semi-automated manner using CMA Microdialysis AB enzymatic assay and a CMA 600 analyzer (Aurora Borealis, Schoonebeek, The Netherlands) as previously described. Briefly, cells (2 × 10^5 cells per well; 3 wells/condition) were seeded in 12-well plates with 2 mL of their routine culture medium. After 24 h, medium was replaced by 500 µL of DMEM containing 10 mmol/L D-glucose and supplemented with 2 mmol/L L-glutamine and 10% dialyzed FBS (Sigma-Aldrich), in the presence of the compounds or vehicle (DMSO). The initial concentration of L-lactate in the experimental medium was also assessed by including control wells containing only cell culture medium (no cells) on each plate. […] Differences in L-lactate concentrations between control and treated cells were calculated and normalized by the protein content in each well and expressed in µmol/h/mg protein. Oxygen-consumption rate (OCR) was measured using the Seahorse XF96 plate reader as previously reported. […] In some experiments, the effects of selected hits on basal OCR were evaluated in intact cells (including in the presence of MCT1/2 inhibitor AR-C155858 [29] or methylpyruvate). […]
Suppl. […] Culture medium was collected after 24h exposure to the indicated compounds and lactate content was determined in a semi-automated manner. […]

mitochondrial complex I = mitochondrial complex I (Mus musculus, UniProt P03888+Q91WD5+Q9DC70); assay: Seahorse OCR in permeabilized CT26 cancer cells, mitochondrial complex I inhibition (Assay #2); assay type: cell-based; settings: for pattern of OCR inhibition activity relative to aa: 1 and 10 µM; for IC50: pyruvate/malate, tested at 1 and 10 µM, read-out: OCR inhib. (IC50)
Description: as §1
(A–D). Graphs depict changes in O2 consumption rate (OCR) measured with the Seahorse technology on permeabilized CT26 cancer cells upon successive addition of pyruvate/malate, the indicated inhibitor and succinate. […] (E,F).

intact CT26 cancer cells = assay: Seahorse basal OCR and ECAR in intact (non-permeabilized) CT26 cancer cells; assay type: cell-based, mouse; settings: non-permeabilized CT26 cells, 10 µM
Description: as §1
Since other lactate transporters could be involved, we also used methylpyruvate which can bypass the need for a mitochondrial carrier and mimic the result of lactate oxidation by a mitochondrial LDH or ensure the delivery of pyruvate into the mitochondria matrix. […] In the same experiments carried out on non-permeabilized cancer cells, the extent of basal OCR inhibition in response to 10 µM aa was similar to that observed with 100 nM IACS-010759 (−52 ± 5% and −45 ± 6%, respectively) and mirrored by an increase in extracellular acidification rate (ECAR) (+36 ± 11% and +29 ± 9%, respectively).

[3] = Cell integrity by Trypan blue exclusion; assay type: cell-based; settings: cancer cells (cell line not specified); 24 h after exposure; read-out: viable cancer cells (Trypan blue exclusion)
Text: (§2) Mouse colorectal CT26 and breast 4T1 cancer cells as well as human cervix cancer SiHa and breast MDA-MD-231 cancer cells were acquired from ATCC where they are regularly authenticated by short tandem repeat profiling. They were stored according to the supplier’s instructions and used within 6 months after resuscitation of frozen aliquots. Cancer cells were maintained in DMEM (Life Technologies, ThermoFischer scientific, Merebelke, Belgium) supplemented with 10% heat-inactivated FBS. All cell lines were tested for mycoplasma contamination with the MycoAlert™ Mycoplasma Detection kit (#LT07-318; Lonza, Verviers, Belgium) before being used. Cell integrity was determined by the Trypan Blue exclusion method (using Bürker chambers) while cell growth was assessed by using the Presto Blue reagent (Life Technologies) according to manufacturer’s instructions.
Still, to support the anticancer potential of complex I inhibition, we also examined the cytotoxic effects of longer exposure of intact cancer cells to reference compound aa and hit compounds ag, aj and au. […] While the nature of cell death induced by aa derivatives is beyond the scope of this manuscript, alteration in mitochondria fitness and capacity to buffer calcium could be involved as previously reported.

CT26 colon cancer cells = assay: Growth inhibitory effects on cultured CT26 cells (Presto Blue); assay type: cell-based, mouse; settings: CT26 monolayers, 1 µM, 72 h
Text: as §2
(§3) Figure 4 Mitochondrial complex I activity inhibition (Assay #2). (A–D). Graphs depict changes in O2 consumption rate (OCR) measured with the Seahorse technology on permeabilized CT26 cancer cells upon successive addition of pyruvate/malate, the indicated inhibitor and succinate. OXPHOS I inhibitor IACS was used as a control in the experiments testing reference compound aa (A), and compound aa (10µM) was used as reference for testing au, ah and at derivatives (B–D) (n = 6 per compound). (E,F). Growth inhibitory effects of cultured CT26 (E) and 4T1 […] cancer cells exposed to 100 nM IACS or 1 µM aa, ag, aj and au compounds for 72 h; data represent the reduced extent (expressed as %) of cell viability (determined with Presto Blue) when compared with vehicle conditions (n = 3).

breast 4T1 cancer cells = assay: Growth inhibitory effects on cultured 4T1 cells (Presto Blue); assay type: cell-based, mouse; settings: 4T1 monolayers, 1 µM, 72 h, compared with CT26
Text: as §2, §3

[4] = system: human cervix Siha cancer cells; assay: Growth inhibitory effects on human cancer cells (Presto Blue), SiHa vs MDA-MB-231; assay type: cell-based; settings: 1 µM
Text: as §2
Suppl. Figure S3. Growth inhibitory effects of hit compounds on human cancer cells. MDA-M B-231 (A) and Siha (B) cancer cells were exposed to 100 nM IACS or 1 µM aa, ag, aj and au compounds; data represent the reduced extent (expressed as %) of cell viability (determined with Presto Blue) when compared with vehicle conditions (n=3).
(also on this page, place not known: 60Growth inhibitory effects (%) MDA-MB-231 aa au 60Growth inhibitory effects (%))

3D tumor CT26 spheroids [5] = assay: Inhibition of 3D tumor spheroid growth (Assay #3); assay type: cell-based, mouse; settings: for 3D growth inhib. (%): 3D tumor CT26 spheroids; for spheroid growth inhibition compared with reference compound aa: CT26 spheroids, day 10
Description: (§4) Spheroids were prepared by seeding 1500 cells/well in Ultra-Low Attachment 96-well plate (Corning, Merck, Hoeilaart, Belgium) in DMEM supplemented with 10% heat-inactivated FBS. Inhibitors were added on day 4 (mean diameter of spheroids: 300 µm) and renewed every 3 days. Spheroid growth was monitored using live-cell phase contrast microscope (Axio Observer, Zeiss, Zaventem, Belgium); spheroid area, density and morphology were measured using ImageJ software. Confocal fluorescence microscopy (LSM510, Zeiss, Zaventem, Belgium) was used for detecting pimonidazole immunostaining as previously reported. Spheroids from a same experiment were imaged with the same gain and exposure settings. In some experiments, OXPHOSi treatment was combined with irradiation using a ^137Cs γ-irradiator (IBL-637; CIS-BioInternational, Saclay, France) as previously described.
(§5) Figure 5 Inhibition of 3D tumor spheroid growth (Assay #3). […] Drug exposure without (A) or with irradiation (B) was associated with a significant reduction in spheroid sizes vs. untreated spheroids (not shown).

3D tumor CT26 spheroids [6] = assay: Radiosensitizing effects in 3D tumor spheroids (6 Gy irradiation); assay type: cell-based, mouse; settings: 6 Gy irradiation at day 4, day 10 vs day 3
Description: as §4, §5
We also took advantage of 3D tumor spheroids to evaluate whether they could radiosensitize tumors upon O2 sparing resulting from inhibition of O2 consumption. […]

[7] = system: cancer cells from dissociated spheroids; assay: Regrowth of cells from dissociated spheroids after irradiation and compound; assay type: cell-based, mouse; settings: plated for 14 days, compared with aa
Text: Finally, to document the expected re-oxygenation, spheroids treated with compounds aa, aj and am were exposed to the hypoxia probe pimonidazole.
(§6) Figure 6 Radiosensitizing effects of selected complex I inhibitors. (A) Extent of surviving cancer cells post-exposure to radiotherapy and the indicated compounds (n = 3, * p < 0.05, ** p < 0.01 vs. vehicle condition).

3D tumor CT26 spheroids [8] = assay: Pimonidazole immunostaining of hypoxia in spheroids; assay type: cell-based, mouse; settings: treated spheroids
Description: as §4, §6

SMILES	[LAC] increase [1] [µmol/h/mg]	L-lactate release compared with aa compound [2]	pattern of OCR inhibition activity relative to aa (mitochondrial complex I)	IC50 (mitochondrial complex I) [µM]	concentration at which complex I-dependent OCR reduction was detectable (mitochondrial complex I) [µM]	reversal of OCR inhibition upon succinate addition (mitochondrial complex I; 10 mM succinate)	increase in extracellular acidification rate (ECAR) (intact CT26 cancer cells)	viability at 24 h [3] [%]	cytotoxic / growth inhibitory effects (CT26 colon cancer cells)	growth inhibitory activity (breast 4T1 cancer cells)	antiproliferative effects in Siha compared with MDA-MB-231 cells [4]	L-lactate release compared with reference compound aa [1]	3D growth inhib. (%) (3D tumor CT26 spheroids [5])	spheroid growth inhibition compared with reference compound aa (3D tumor CT26 spheroids [5])	change in spheroid size with irradiation (3D tumor CT26 spheroids [6])	ability of cancer cells to re-grow after irradiation and compound [7]	reduction of hypoxia (pimonidazole) (3D tumor CT26 spheroids [8])
NCc1cn(Cc2cc(Cl)c(C(=O)c3ccc(Cl)cc3)c(Cl)c2)nn1 [at]	~0	less potent	inactive	> 10													
NC(=O)c1nnn(Cc2cc(Cl)c(C(=O)c3ccc(Cl)cc3)c(Cl)c2)c1N [compound aa, carboxyamidotriazole, reference compound]	~2				1	full reversal of OCR inhibition	+36 ± 11%	90.9 ± 5.1	very limited effects	more significant growth inhibitory activity	Larger antiproliferative effects						
NC(=O)c1nnn(Cc2cc(Cl)c(C(=O)C3CCCCC3)c(Cl)c2)c1N [compound aj]	~4								very limited effects	more significant growth inhibitory activity	Larger antiproliferative effects	more potent inducers of L-lactate release	>50	significantly more active than reference compound aa	net reduction in the spheroid size	much lesser ability to re-grow	reduced hypoxia to a larger extent than compound aa
NC(=O)c1nnn(Cc2cc(Cl)c(Cc3ccc(Cl)cc3)c(Cl)c2)c1N [compound am]	~4			~10								more potent inducers of L-lactate release	>50	significantly more active than reference compound aa	net reduction in the spheroid size	much lesser ability to re-grow	reduced hypoxia to a larger extent than compound aa
COC(=O)c1cn(Cc2cc(Cl)c(C(=O)c3ccc(Cl)cc3)c(Cl)c2)nn1 [compound au]	~4	more	equiactive						very limited effects	more significant growth inhibitory activity	Larger antiproliferative effects	more potent inducers of L-lactate release	<25	significantly lesser growth inhibitory effects than compound aa			
